Assay results reported in patent US20170151333A1, “NOVEL CATIONIC LIPIDS AND METHODS OF USE THEREOF” (PROTIVA BIOTHERAPEUTICS, INC., priority 2010, published 2017).

Test system: Liver ApoB mRNA
Assay: Liver ApoB mRNA knockdown by 1:57 SNALP containing cationic lipid and ApoB siRNA in mice (branched DNA QuantiGene assay)
Type: in vivo
Conditions: Balb/c mice; for ApoB knockdown relative to PBS control (%): 1:57 SNALP containing the cationic lipid with ApoB siRNA, liver ApoB:GAPD mRNA, 48 h, n = 3; for ApoB silencing activity compared to a SNALP formulation containing the C2K benchmark cationic lipid: 1:57 SNALP with ApoB siRNA, administered at the same dose as C2K SNALP
From the text: In some embodiments, siRNA molecules were encapsulated into serum-stable nucleic acid-lipid particles (SNALP) composed of the following lipids: (1) the lipid conjugate PEG2000-C-DMA (3-N-[(-methoxypoly(ethylene glycol)2000)carbamoyl]-1,2-dimyristyloxypropylamine); (2) one or more cationic lipids or salts thereof (e.g., cationic lipids of Formula I of the invention and/or other cationic lipids described herein); (3) the phospholipid DPPC (1,2-dipalmitoyl-sn-glycero-3-phosphocholine) (Avanti Polar Lipids; Alabaster, Ala.); and (4) synthetic cholesterol (Sigma-Aldrich Corp.; St. Louis, Mo.) in the molar ratio 1.4:57.1:7.1:34.3, respectively. In other words, siRNA molecules were encapsulated into SNALP of the following “1:57” formulation: 1.4% PEG2000-C-DMA; 57.1% cationic lipid; 7.1% DPPC; and 34.3% cholesterol. It should be understood that the 1:57 formulation is a target formulation, and that the amount of lipid (both cationic and non-cationic) present and the amount of lipid conjugate present in the formulation may vary. Typically, in the 1:57 formulation, the amount of cationic lipid will be 57.1 mol %±5 mol %, and the amount of lipid conjugate will be 1.4 mol %±0.5 mol %, with the balance of the 1:57 formulation being made up of non-cationic lipid (e.g., phospholipid, cholesterol, or a mixture of the two).
SNALP formulations were administered by IV injection at 0.033 mg/kg or at 0.05 mg/kg into Balb/c mice (n=3 per group). Liver ApoB mRNA levels were evaluated at 48 hours after SNALP administration by a branched DNA assay (QuantiGene assay) to assess ApoB mRNA relative to the housekeeping gene GAPDH.

SMILES: CCC1CC1CC1CC1CC1CC1CCCCCCCCC(CCCCCCCCC1CC1CC1CC1CC1CC1CC)OC(=O)CCCN(C)C (centres unmarked) [Compound 5]
- ApoB knockdown relative to PBS control (%) (IV 0.033 mg/kg): −56%

SMILES: CCCCC/C=C\C/C=C\CCCCCCCCCC(CCCCCCC/C=C\C/C=C\CCCCC)OC(=O)N(CC)CCN(C)C (centres unmarked) [Compound 29, (6Z,9Z,28Z,31Z)-heptatriaconta-6,9,28,31-tetraen-18-yl 2-(dimethylamino)ethyl(ethyl)carbamate]
- ApoB knockdown relative to PBS control (%) (IV 0.05 mg/kg): −59%

SMILES: CCCCC/C=C\C/C=C\CCCCCCCC(O)C(CCCCCCC/C=C\C/C=C\CCCCC)OC(=O)CCN(C)C (centres unmarked) [Compound 22, (6Z,9Z,27Z,30Z)-19-hydroxyhexatriaconta-6,9,27,30-tetraen-18-yl 3-(dimethylamino)propanoate]
- ApoB knockdown relative to PBS control (%) (IV 0.033 mg/kg): −30%

SMILES: CCCCC/C=C\C/C=C\CCCCCCCCC(CCCCCCCC/C=C\C/C=C\CCCCC)OC(=O)N(C)CCN(C)C [Compound 11, MC2MC]
- ApoB knockdown relative to PBS control (%) (IV 0.05 mg/kg): −54%

SMILES: CCCCC/C=C\C/C=C\CCCCCCCCCC(CCCCCCC/C=C\C/C=C\CCCCC)OC(=O)N(CCCCCC)CCCN(C)C (centres unmarked) [Compound 27, (6Z,9Z,28Z,31Z)-heptatriaconta-6,9,28,31-tetraen-18-yl 3-(dimethylamino)propyl(hexyl)carbamate]
- ApoB knockdown relative to PBS control (%) (IV 0.033 mg/kg): −66%
- ApoB silencing activity compared to a SNALP formulation containing the C2K benchmark cationic lipid: unexpectedly improved ApoB silencing activity

SMILES: CC(C)CCCC(C)CCCC(C)CCCC(C)CCC(CCC(C)CCCC(C)CCCC(C)CCCC(C)C)OC(=O)CCCCN(C)C (centres unmarked) [Compound 18, Phytanyl-MC4]
- ApoB knockdown relative to PBS control (%) (IV 0.05 mg/kg): −46%

SMILES: CCCCC/C=C\C/C=C\C/C=C\CCCCCC(CCCCC/C=C\C/C=C\C/C=C\CCCCC)OC(=O)CCCN(C)C [Compound 8, γ-LenMC3]
- ApoB knockdown relative to PBS control (%) (IV 0.033 mg/kg): −71%
- ApoB silencing activity compared to a SNALP formulation containing the C2K benchmark cationic lipid: unexpectedly improved ApoB silencing activity

SMILES: CCCCC/C=C/C/C=C/CCCCCCCCC(CCCCCCCC/C=C/C/C=C/CCCCC)OC(=O)CCCN(C)C [Compound 40, (6E,9E,28E,31E)-heptatriaconta-6,9,28,31-tetraen-19-yl 4-(dimethylamino)butanoate]
- ApoB knockdown relative to PBS control (%) (IV 0.05 mg/kg): −58%

SMILES: CCCCC/C=C\C/C=C\CCCCCCCCC(CCCCCCCC/C=C\C/C=C\CCCCC)SC(=O)CCCN(C)C [Compound 20, S-(6Z,9Z,28Z,31Z)-heptatriaconta-6,9,28,31-tetraen-19-yl 4 (dimethylamino) butanethioate]
- ApoB knockdown relative to PBS control (%) (IV 0.05 mg/kg): −50%

SMILES: CCCCCC/C=C/C=C\CCCCCCCCC(CCCCCCCC/C=C\C=C\CCCCCC)OCCCN(C)C [Compound 41, 3-((7E,9Z,28Z,30E)-heptatriaconta-7,9,28,30-tetraen-19-yloxy)-N,N-dimethylpropan-1-amine]
- ApoB knockdown relative to PBS control (%) (IV 0.033 mg/kg): −52%

SMILES: CC/C=C\C/C=C\C/C=C\CCCCCCCCC(CCCCCCCC/C=C\C/C=C\C/C=C\CC)OCCCCN(C)C [Compound 35, 4-((3Z,6Z,9Z,28Z,31Z,34Z)-heptatriaconta-3,6,9,28,31,34-hexaen-19-yloxy)-N,N-dimethylbutan-1-amine]
- ApoB knockdown relative to PBS control (%) (IV 0.033 mg/kg): −78%
- ApoB silencing activity compared to a SNALP formulation containing the C2K benchmark cationic lipid: unexpectedly improved ApoB silencing activity

SMILES: CCCCC/C=C\C/C=C\CCCCCCCCC(CCCCCCCC/C=C\C/C=C\CCCCC)OC(=O)N(C)CCCN(C)CC [Compound 30, (6Z,9Z,28Z,31Z)-heptatriaconta-6,9,28,31-tetraen-19-yl (3-(ethyl(methyl)amino)propyl)(methyl)carbamate]
- ApoB knockdown relative to PBS control (%) (IV 0.05 mg/kg): −65%

SMILES: CCCCC/C=C\C/C=C\CCCCCCCCC(CCCCCCCC/C=C\C/C=C\CCCCC)OC(=O)CCCN(C)C [Compound 1, (6Z,9Z,28Z,31Z)-heptatriaconta-6,9,28,31-tetraen-19-yl 4-(dimethylamino)butanoate]
- ApoB knockdown relative to PBS control (%) (IV 0.033 mg/kg): −71%
- ApoB knockdown relative to PBS control (%) (IV 0.05 mg/kg): −81%
- ApoB silencing activity compared to a SNALP formulation containing the C2K benchmark cationic lipid: unexpectedly improved ApoB silencing activity

SMILES: CCCCCC1CC1CC1CC1CC1CC1CCCCCC(CCCCCC1CC1CC1CC1CC1CC1CCCCC)OC(=O)CCCN(C)C (centres unmarked) [Compound 9, CP-γ-LenMC3]
- ApoB knockdown relative to PBS control (%) (IV 0.033 mg/kg): −54%

SMILES: CC(C)CCCC(C)CCCC(C)CCCC(C)CCC(CCC(C)CCCC(C)CCCC(C)CCCC(C)C)OC(=O)CCCN(C)C (centres unmarked) [Compound 17, Phytanyl-MC3]
- ApoB knockdown relative to PBS control (%) (IV 0.05 mg/kg): −14%

SMILES: CCCCC/C=C\C/C=C\CCCCCCCC(=O)C(CCCCCCC/C=C\C/C=C\CCCCC)OC(=O)CCCN(C)C (centres unmarked) [Compound 23, (6Z,9Z,27Z,30Z)-19-oxohexatriaconta-6,9,27,30-tetraen-18-yl 4-(dimethylamino)butanoate]
- ApoB knockdown relative to PBS control (%) (IV 0.033 mg/kg): −33%

SMILES: CCCCC/C=C\C/C=C\CCCCCCCCC(CCCCCCCC/C=C\C/C=C\CCCCC)OC(=O)N(C)CCCN(CC)CC [Compound 31, (6Z,9Z,28Z,31Z)-heptatriaconta-6,9,28,31-tetraen-19-yl (3-(diethylamino)propyl)(methyl)carbamate]
- ApoB knockdown relative to PBS control (%) (IV 0.05 mg/kg): −62%

SMILES: CC/C=C\CCCN(CCCN(C)C)C(=O)OC(CCCCCCC/C=C\C/C=C\CCCCC)CCCCCCCCC/C=C\C/C=C\CCCCC (centres unmarked) [Compound 28, (6Z,9Z,28Z,31Z)-heptatriaconta-6,9,28,31-tetraen-18-yl 3-(dimethylamino)propyl((Z)-hept-4-enyl)carbamate]
- ApoB knockdown relative to PBS control (%) (IV 0.033 mg/kg): −68%
- ApoB silencing activity compared to a SNALP formulation containing the C2K benchmark cationic lipid: unexpectedly improved ApoB silencing activity

SMILES: CCCCC/C=C\C/C=C\CCCCCCCCC(CCCCCCCC/C=C\C/C=C\CCCCC)OCCCN(C)C [Compound 13, 3-((6Z,9Z,28Z,31Z)-heptatriaconta-6,9,28,31-tetraen-19-yloxy)-N,N-dimethylpropan-1-amine]
- ApoB knockdown relative to PBS control (%) (IV 0.033 mg/kg): −69%
- ApoB silencing activity compared to a SNALP formulation containing the C2K benchmark cationic lipid: unexpectedly improved ApoB silencing activity

SMILES: CCCCC/C=C\C/C=C\CCCCCCCCC(CCCCCCCC/C=C/C/C=C/CCCCC)OC(=O)CCCN(C)C (centres unmarked) [Compound 25, (6Z,9Z,28E,31E)-heptatriaconta-6,9,28,31-tetraen-19-yl 4-(dimethylamino)butanoate]
- ApoB knockdown relative to PBS control (%) (IV 0.05 mg/kg): −66%

SMILES: CCC/C=C\C/C=C\CCCCCCCCC(CCCCCCCC/C=C\C/C=C\CCCCC)OC(=O)N(C)CCCN(C)C (centres unmarked) [Compound 10, MC3MC]
- ApoB knockdown relative to PBS control (%) (IV 0.033 mg/kg): −50%

SMILES: CC/C=C\C/C=C\C/C=C\CCCCCCCCC(CCCCCCCC/C=C\C/C=C\C/C=C\CC)OCCCN(C)C [Compound 34, 3-((3Z,6Z,9Z,28Z,31Z,34Z)-heptatriaconta-3,6,9,28,31,34-hexaen-19-yloxy)-N,N-dimethylpropan-1-amine]
- ApoB knockdown relative to PBS control (%) (IV 0.033 mg/kg): −41%

SMILES: CCCCC/C=C\C/C=C\CCCCCCCCC1(CCCCCCCC/C=C\C/C=C\CCCCC)OCC(CCN(C)C)O1 (centres unmarked) [Compound C2K, 2,2-dilinoleyl-4-(2-dimethylaminoethyl)-[1,3]-dioxolane, reference compound]
- ApoB knockdown relative to PBS control (%) (IV 0.033 mg/kg): −51%
- ApoB knockdown relative to PBS control (%) (IV 0.05 mg/kg): −66%

SMILES: CCCCC/C=C\C/C=C\CCCCCCCCC(CCCCCCCC/C=C\C/C=C\CCCCC)OCCCCN(C)C [Compound 15, MC4 Ether]
- ApoB knockdown relative to PBS control (%) (IV 0.05 mg/kg): −77%
- ApoB silencing activity compared to a SNALP formulation containing the C2K benchmark cationic lipid: unexpectedly improved ApoB silencing activity

SMILES: CC/C=C\C/C=C\C/C=C\CCCCCCCCC(CCCCCCCC/C=C\C/C=C\C/C=C\CC)OC(=O)CCCN(C)C [Compound 4, LenMC3]
- ApoB knockdown relative to PBS control (%) (IV 0.033 mg/kg): −78%
- ApoB silencing activity compared to a SNALP formulation containing the C2K benchmark cationic lipid: unexpectedly improved ApoB silencing activity
